Reference: PubChem BioAssay AID330 (DTP/NCI, 2004)
Toxic doses and inconclusive results are not listed.

System: P388 leukemia ip, CD2F1 mice, survival T/C
Assay: NCI In Vivo Anticancer Drug Screen. Data for tumor model P388 Leukemia (intraperitoneal) in CD2F1 (CDF1) mice
Conditions: endpoint: median survival time, higher = longer survival
How it was run: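 Mice carrying the transplanted tumor received test compound or vehicle. Survival was recorded in each group, and the value is the treated-group measurement divided by that of the vehicle-treated control group.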

[1] = dose: 50.0 mg/kg/injection, schedule: Q01DX005 (ip), vehicle: Klucel (hydroxypropylcellulose) (HPC)
[2] = dose: 100.0 mg/kg/injection, schedule: Q01DX005 (ip), vehicle: Klucel (hydroxypropylcellulose) (HPC)
[3] = dose: 200.0 mg/kg/injection, schedule: Q01DX005 (ip), vehicle: Klucel (hydroxypropylcellulose) (HPC)
[4] = dose: 60.0 mg/kg/injection, schedule: Q01DX005 (ip), vehicle: saline with Tween-80
[5] = dose: 120.0 mg/kg/injection, schedule: Q01DX005 (ip), vehicle: saline with Tween-80
[6] = dose: 240.0 mg/kg/injection, schedule: Q01DX005 (ip), vehicle: saline with Tween-80
[7] = dose: 50.0 mg/kg/injection, schedule: Q01DX009 (ip), vehicle: saline with Tween-80
[8] = dose: 100.0 mg/kg/injection, schedule: Q01DX009 (ip), vehicle: saline with Tween-80
[9] = dose: 200.0 mg/kg/injection, schedule: Q01DX009 (ip), vehicle: saline with Tween-80

Cc1c(O)/c(=C\O)c2nc3c(=O)ccc(C(=O)NCCN(C)C)c3[nH]c2c1=O
T/C (dose: 6.25 mg/kg/injection, schedule: Q01DX005 (ip), vehicle: other): 117 % of control | T/C (dose: 7.5 mg/kg/injection, schedule: Q03HX015 (ip), vehicle: water): 160 % of control | T/C (dose: 12.5 mg/kg/injection, schedule: Q01DX005 (ip), vehicle: other): 120 % of control | T/C (dose: 15.0 mg/kg/injection, schedule: Q03HX015 (ip), vehicle: water): 177 % of control | T/C (dose: 50.0 mg/kg/injection, schedule: Q01DX005 (ip), vehicle: other): 123 % of control

COc1cc2ccncc2cc1O
T/C (dose: 3.13 mg/kg/injection, schedule: Q01DX009 (ip), vehicle: water): 91 % of control | T/C (dose: 6.25 mg/kg/injection, schedule: Q01DX009 (ip), vehicle: water): 95 % of control | T/C (dose: 12.5 mg/kg/injection, schedule: Q01DX009 (ip), vehicle: water): 100 % of control | T/C (dose: 25.0 mg/kg/injection, schedule: Q01DX009 (ip), vehicle: water): 95 % of control | T/C (dose: 50.0 mg/kg/injection, schedule: Q01DX009 (ip), vehicle: water): 103 % of control

COc1ccc(C(C)=O)cc1CN1CCN(Cc2cc(C(C)=O)ccc2OC)CC1
T/C [1]: 104 % of control | T/C [2]: 105 % of control | T/C [3]: 99 % of control

C(=C\c1cc2ccc(C3=NCCN3)cc2[nH]1)/c1ccc(C2=NCCN2)cc1
T/C (dose: 6.25 mg/kg/injection, schedule: Q04DX003 (ip), vehicle: saline): 118 % of control

NS(=O)(=O)c1ccc(N=Cc2cnc3ccccc3n2)cc1
T/C (dose: 5.0 mg/kg/injection, schedule: Q01DX009 (ip), vehicle: saline): 97 % of control | T/C (dose: 10.0 mg/kg/injection, schedule: Q01DX009 (ip), vehicle: saline): 101 % of control | T/C (dose: 20.0 mg/kg/injection, schedule: Q01DX009 (ip), vehicle: saline): 97 % of control

O=C1OC(C2OC(=O)C(=O)C2C(=O)c2ccccc2Cl)C(C(=O)c2ccccc2Cl)C1=O (configuration not stated)
T/C (dose: 15.0 mg/kg/injection, schedule: Q01DX005 (ip), vehicle: saline + Tween-80 + alcohol): 99 % of control | T/C (dose: 30.0 mg/kg/injection, schedule: Q01DX005 (ip), vehicle: saline + Tween-80 + alcohol): 91 % of control

COc1ccc(C2C3=C(CCCC3=O)Oc3cc4c(cc32)OCO4)c(OC)c1 (configuration not stated)
T/C [4]: 99 % of control | T/C [5]: 90 % of control | T/C [6]: 90 % of control

CC(C)(CCC(=O)O)C(=O)O
T/C (dose: 50.0 mg/kg/injection, schedule: Q01DX009 (ip), vehicle: saline sonified): 91 % of control | T/C (dose: 200.0 mg/kg/injection, schedule: Q01DX009 (ip), vehicle: saline sonified): 87 % of control

Cn1cnc2cc(N3CCCCC3)c([N+](=O)[O-])cc2c1=O
T/C (dose: 50.0 mg/kg/injection, schedule: Q01DX009 (ip), vehicle: Klucel (hydroxypropylcellulose) (HPC)): 101 % of control | T/C (dose: 100.0 mg/kg/injection, schedule: Q01DX009 (ip), vehicle: Klucel (hydroxypropylcellulose) (HPC)): 107 % of control | T/C (dose: 200.0 mg/kg/injection, schedule: Q01DX009 (ip), vehicle: Klucel (hydroxypropylcellulose) (HPC)): 99 % of control

COc1cccc2c(NCCCN(C)CCCNc3c4ccccc4nc4c(OC)cccc34)c3ccccc3nc12
T/C (dose: 1.25 mg/kg/injection, schedule: Q01DX009 (ip), vehicle: water): 120 % of control | T/C (dose: 2.5 mg/kg/injection, schedule: Q01DX009 (ip), vehicle: water): 124 % of control | T/C (dose: 10.0 mg/kg/injection, schedule: Q01DX009 (ip), vehicle: water): 163 % of control

CC1(C)OC(=O)C(=Cc2ccc[nH]2)C(=O)O1
T/C [1]: 98 % of control | T/C [2]: 105 % of control | T/C [3]: 107 % of control

CC(C)=CCOc1ccc2ccc(=O)oc2c1
T/C (dose: 5.0 mg/kg/injection, schedule: Q01DX009 (ip), vehicle: saline with Tween-80): 106 % of control | T/C (dose: 10.0 mg/kg/injection, schedule: Q01DX009 (ip), vehicle: saline with Tween-80): 108 % of control | T/C (dose: 20.0 mg/kg/injection, schedule: Q01DX009 (ip), vehicle: saline with Tween-80): 103 % of control

O=S(=O)(CCl)NCCCl
T/C [7]: 100 % of control | T/C [8]: 106 % of control | T/C [9]: 106 % of control

CC(C)(C)c1ccc(C(=O)NNC(O)C(F)(F)F)cc1 (configuration not stated)
T/C (dose: 100.0 mg/kg/injection, schedule: Q04DX002 (ip), vehicle: Klucel (hydroxypropylcellulose) (HPC)): 101 % of control | T/C (dose: 200.0 mg/kg/injection, schedule: Q04DX002 (ip), vehicle: Klucel (hydroxypropylcellulose) (HPC)): 103 % of control

Cc1ncc(CO)c(C=Nc2ccccc2N=Cc2c(CO)cnc(C)c2O)c1O.[Zn]
T/C [1]: 104 % of control | T/C [2]: 105 % of control | T/C [3]: 101 % of control

COc1c(/C=C/C=O)cc2c(c1OC)OCO2
T/C (dose: 25.0 mg/kg/injection, schedule: Q01DX005 (ip), vehicle: Klucel (hydroxypropylcellulose) (HPC)): 97 % of control | T/C [1]: 97 % of control | T/C [2]: 104 % of control | T/C [3]: 100 % of control

Clc1cccc(C(Nc2nncs2)Nc2nncs2)c1
T/C [4]: 100 % of control | T/C [5]: 100 % of control | T/C [6]: 93 % of control

COc1ccc(COC(=O)Nc2ccccc2F)c(OC)c1OC
T/C (dose: 50.0 mg/kg/injection, schedule: Q01DX005 (ip), vehicle: saline with Tween-80): 91 % of control | T/C (dose: 100.0 mg/kg/injection, schedule: Q01DX005 (ip), vehicle: saline with Tween-80): 101 % of control | T/C (dose: 200.0 mg/kg/injection, schedule: Q01DX005 (ip), vehicle: saline with Tween-80): 100 % of control

CCC[CH2][Sn]([CH2]CCC)([CH2]CCC)[CH2]CCN(C)C
T/C (dose: 50.0 mg/kg/injection, schedule: Q01DX009 (ip), vehicle: saline): 99 % of control | T/C (dose: 100.0 mg/kg/injection, schedule: Q01DX009 (ip), vehicle: saline): 100 % of control

Cc1ccc(S(=O)(=O)NCCN(CCN(CCNS(=O)(=O)c2ccc(C)cc2)S(=O)(=O)c2ccc(C)cc2)S(=O)(=O)c2ccc(C)cc2)cc1
T/C [7]: 101 % of control | T/C [8]: 92 % of control | T/C [9]: 90 % of control

Nc1ccc2c(c1)C(O)c1cccc(C(=O)O)c1-2 (configuration not stated)
T/C [4]: 96 % of control | T/C [5]: 101 % of control | T/C [6]: 94 % of control

O=c1c(OCc2ccccc2)cccn1Cc1ccccc1
T/C (dose: 25.0 mg/kg/injection, schedule: Q01DX009 (ip), vehicle: distilled water + Tween-80): 92 % of control | T/C (dose: 50.0 mg/kg/injection, schedule: Q01DX009 (ip), vehicle: distilled water + Tween-80): 95 % of control | T/C (dose: 100.0 mg/kg/injection, schedule: Q01DX009 (ip), vehicle: distilled water + Tween-80): 100 % of control | T/C (dose: 200.0 mg/kg/injection, schedule: Q01DX009 (ip), vehicle: distilled water + Tween-80): 95 % of control | T/C (dose: 400.0 mg/kg/injection, schedule: Q01DX009 (ip), vehicle: distilled water + Tween-80): 101 % of control

O=C(CCCl)Nc1ccc(C(=O)CCc2cccc(NC(=O)CCCl)c2)cc1
T/C [4]: 100 % of control | T/C [5]: 97 % of control | T/C [6]: 89 % of control

CC(C)C(N)C(=O)NC(C(=O)NS(=O)(=O)c1ccc(N)cc1)C(C)C (configuration not stated)
T/C (dose: 50.0 mg/kg/injection, schedule: Q01DX005 (ip), vehicle: saline): 99 % of control | T/C (dose: 100.0 mg/kg/injection, schedule: Q01DX005 (ip), vehicle: saline): 93 % of control | T/C (dose: 200.0 mg/kg/injection, schedule: Q01DX005 (ip), vehicle: saline): 98 % of control

CCCCC(=O)CCCCCCCCC(O)CC(=O)OCC (configuration not stated)
T/C (dose: 100.0 mg/kg/injection, schedule: Q04DX003 (ip), vehicle: Klucel (hydroxypropylcellulose) (HPC)): 100 % of control | T/C (dose: 200.0 mg/kg/injection, schedule: Q04DX003 (ip), vehicle: Klucel (hydroxypropylcellulose) (HPC)): 103 % of control | T/C (dose: 400.0 mg/kg/injection, schedule: Q04DX003 (ip), vehicle: Klucel (hydroxypropylcellulose) (HPC)): 102 % of control

CN1CCCc2c1n(-c1ccccc1)c(=O)n(-c1ccccc1)c2=O
T/C [1]: 100 % of control | T/C [2]: 101 % of control | T/C [3]: 99 % of control

CCc1[nH]c(=O)nc(N)c1-c1ccc(N2CCCCC2)c([N+](=O)[O-])c1
T/C [4]: 93 % of control | T/C [5]: 96 % of control | T/C [6]: 97 % of control
